Assay results taken from ChEMBL document CHEMBL1158031, “Biscembranes from the soft coral Sarcophyton glaucum” (J Nat Prod, 2006).
Activity calls are given as the source filed them. The rule behind the calls is not given here.

Legend:
HL-60 [1] = assay: Cytotoxicity against human HL-60 upto 100 uM; type: functional, cell-based
HL-60 [2] = assay: Cytotoxicity against human HL-60; type: functional, cell-based

SMILES	Activity (HL-60 [1])	IC50 (HL-60 [2])
COC(=O)[C@]12CC(=O)[C@H](C(C)C)CC(=O)/C(C)=C/CC/C(C)=C/C(=O)[C@H]1CC(C)=C1C[C@H](O)[C@](C)(O)[C@H]3CC[C@@](C)(O)[C@H](CC/C(C)=C/[C@@H]12)O3	inactive	
COC(=O)[C@]12CC(=O)[C@H](C(C)C)CC(=O)/C(C)=C/CC/C(C)=C\C(=O)[C@H]1CC(C)=C1C[C@H](OC(C)=O)[C@](C)(O)[C@H]3CC[C@@](C)(O)[C@H](CC/C(C)=C/[C@@H]12)O3 [BISGLAUCUMLIDE C]		33.7 µM
COC(=O)[C@]12CC(=O)[C@H](C(C)C)CC(=O)/C(C)=C\CC/C(C)=C\C(=O)[C@H]1CC(C)=C1C[C@H](OC(C)=O)[C@](C)(O)[C@H]3CC[C@@](C)(O)[C@H](CC/C(C)=C/[C@@H]12)O3 [BISGLAUCUMLIDE D]		42.3 µM
COC(=O)[C@]12CC(=O)[C@H](C(C)C)CC(=O)/C(C)=C/CC/C(C)=C/C(=O)[C@H]1CC(C)=C1C[C@H](OC(C)=O)[C@](C)(O)[C@H]3CC[C@@](C)(O)[C@H](CC/C(C)=C/[C@@H]12)O3	inactive	
